This note sets out measurements from US8569292B2, “Cyclic inhibitors of 11β-hydroxysteroid dehydrogenase 1” (Vitae Pharmaceuticals, Inc., priority 2008, dated 2013).

Assay [1] deals with T1, 11β-HSD1 (Homo sapiens, UniProt P28845). Briefly: biochemical. The note with it: for IC50: Biological Test Example 1 IC50 (nM); for pIC50: IC50 Range, Biological Test Example 1; for inhibition at 0.1 µM: read-out: Average % inhibition at 100 nM.
The next assay deals with CYP3A4 (Homo sapiens, UniProt P08684). Briefly: Biological Test Example 6: CYP3A4 inhibition (erythromycin N-demethylation). Format: in vitro ADME.
The target in assay [2] is T1, 11β-HSD1. Briefly: Biological Test Example 4: microsomal 11β-HSD1 in the presence of 50% human plasma. The settings on record: for Shift: IC50 in Test Example 4 divided by IC50 in Test Example 1.
The next assay addresses CYP2C19 (Homo sapiens, UniProt P33261). Briefly: Biological Test Example 8: CYP2C19 inhibition (diazepam N-demethylation). Format: in vitro ADME.
The next assay deals with T2, CYP2C9 (Homo sapiens, UniProt P11712).
T2 construct: purchased Invitrogen 2859; host or cells: insect cells infected with baculovirus (microsomes)
Briefly: Biological Test Example 7: CYP2C9 inhibition (naproxen O-demethylation). It counts as in vitro ADME.

pIC50: −log10 of the molar value.

The IC50 is the concentration at which inhibition is half-maximal. High values mean weaker potency, low ones greater potency. The pIC50 is the negative decadic logarithm of the IC50, by convention in mol/L. One may read the inhibition as the relative decrease from the control value, in per cent.

Chain of CYP2C19 (P33261 whole entry): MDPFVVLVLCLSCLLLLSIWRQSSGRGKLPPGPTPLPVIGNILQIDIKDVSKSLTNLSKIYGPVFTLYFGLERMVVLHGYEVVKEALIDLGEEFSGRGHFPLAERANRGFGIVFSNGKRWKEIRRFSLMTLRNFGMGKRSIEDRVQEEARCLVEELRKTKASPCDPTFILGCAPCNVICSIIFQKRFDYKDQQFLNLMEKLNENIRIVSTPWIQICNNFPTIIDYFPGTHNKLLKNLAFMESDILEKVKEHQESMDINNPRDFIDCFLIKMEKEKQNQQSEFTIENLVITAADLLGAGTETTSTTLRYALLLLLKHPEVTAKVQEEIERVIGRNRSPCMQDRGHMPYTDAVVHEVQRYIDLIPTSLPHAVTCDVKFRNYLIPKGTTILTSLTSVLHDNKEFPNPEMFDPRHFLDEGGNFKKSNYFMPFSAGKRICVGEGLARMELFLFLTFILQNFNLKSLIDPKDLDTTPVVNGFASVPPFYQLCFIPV
Chain of CYP3A4 (P08684 whole entry): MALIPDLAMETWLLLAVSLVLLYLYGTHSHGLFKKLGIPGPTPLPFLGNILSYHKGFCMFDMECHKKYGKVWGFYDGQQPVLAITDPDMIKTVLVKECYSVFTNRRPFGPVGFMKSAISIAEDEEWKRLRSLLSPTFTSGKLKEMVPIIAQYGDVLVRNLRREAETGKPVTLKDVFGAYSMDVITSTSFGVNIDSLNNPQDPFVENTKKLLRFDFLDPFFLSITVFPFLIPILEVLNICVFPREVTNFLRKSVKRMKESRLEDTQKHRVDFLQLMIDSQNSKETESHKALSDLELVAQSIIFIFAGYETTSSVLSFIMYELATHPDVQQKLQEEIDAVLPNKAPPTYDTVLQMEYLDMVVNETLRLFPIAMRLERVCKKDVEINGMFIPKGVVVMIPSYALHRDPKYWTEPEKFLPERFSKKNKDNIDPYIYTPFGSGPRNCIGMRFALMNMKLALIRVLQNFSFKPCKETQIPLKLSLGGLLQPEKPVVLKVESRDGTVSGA
T1 sequence (P28845 whole entry): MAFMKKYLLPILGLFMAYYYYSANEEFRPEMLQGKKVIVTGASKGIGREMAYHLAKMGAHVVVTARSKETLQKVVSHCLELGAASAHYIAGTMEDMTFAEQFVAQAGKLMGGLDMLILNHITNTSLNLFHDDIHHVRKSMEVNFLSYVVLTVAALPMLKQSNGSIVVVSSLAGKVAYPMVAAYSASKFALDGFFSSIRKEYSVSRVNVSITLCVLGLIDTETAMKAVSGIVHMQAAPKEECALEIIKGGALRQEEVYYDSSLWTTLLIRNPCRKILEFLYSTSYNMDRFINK
T2 sequence (P11712 whole entry): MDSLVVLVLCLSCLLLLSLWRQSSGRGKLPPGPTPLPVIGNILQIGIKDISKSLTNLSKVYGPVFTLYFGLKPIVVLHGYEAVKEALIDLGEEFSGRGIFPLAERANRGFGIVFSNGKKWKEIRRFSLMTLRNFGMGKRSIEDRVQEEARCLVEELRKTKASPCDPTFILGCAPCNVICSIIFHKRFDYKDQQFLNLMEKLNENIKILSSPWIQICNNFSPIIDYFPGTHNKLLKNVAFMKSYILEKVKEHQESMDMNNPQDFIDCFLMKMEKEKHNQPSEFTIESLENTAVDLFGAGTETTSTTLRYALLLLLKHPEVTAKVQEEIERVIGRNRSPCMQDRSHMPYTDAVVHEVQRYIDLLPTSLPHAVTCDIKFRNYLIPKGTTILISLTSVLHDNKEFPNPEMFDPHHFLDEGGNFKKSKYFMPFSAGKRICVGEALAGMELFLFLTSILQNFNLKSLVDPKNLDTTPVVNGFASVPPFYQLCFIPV

On 11β-HSD1 [1], `C[C@@H](c1ccc(-c2ccc(C(=O)NC(C)(C)C)cn2)cc1)N1CC[C@](CC(C)(C)O)(c2ccccc2)OC1=O` [EXAMPLE 163, N-tert-butyl-6-(4-((S)-1-((S)-6-(2-hydroxy-2-methylpropyl)-2-oxo-6-phenyl-1,3-oxazinan-3-yl)ethyl)phenyl)nicotinamide] registered a 50% inhibitory concentration (IC50) of 1.6 nM. The pIC50 is over 7.00 on 11β-HSD1 [1]; 4.80 at CYP3A4; 8.23 at 11β-HSD1 [2]; 4.96 at CYP2C19; 5.16 at CYP2C9. Moreover, the inhibition at 0.1 µM at 11β-HSD1 [1] was determined as 90.3%.
In turn, `Cc1nccc(-c2ccc([C@H](C)N3CC[C@](CC(C)(C)O)(c4ccccc4)OC3=O)cc2)n1` [EXAMPLE 135, (S)-6-(2-hydroxy-2-methylpropyl)-3-((S)-1-(4-(2-methylpyrimidin-4-yl)phenyl)ethyl)-6-phenyl-1,3-oxazinan-2-one] gave a half-inhibitory concentration (IC50) against 11β-HSD1 [1] of 1.8 nM. Moreover, the pIC50 at 11β-HSD1 [1] was over 7.00; against CYP3A4 it was 4.64; at 11β-HSD1 [2], 8.27; at CYP2C19, 4.45; at CYP2C9, 4.35. Also, the inhibition at 0.1 µM on 11β-HSD1 [1] is 97.3%. Moreover, the Shift on 11β-HSD1 [2] amounted to 3.1.
At 11β-HSD1 [1], `C[C@@H](c1ccc(-c2cnc(C(=O)NC(C)(C)C)nc2)cc1)N1CC[C@](CC(C)(C)O)(c2ccccc2)OC1=O` [EXAMPLE 17, N-tert-butyl-5-(4-((S)-1-((S)-6-(2-hydroxy-2-methylpropyl)-2-oxo-6-phenyl-1,3-oxazinan-3-yl)ethyl)phenyl)pyrimidine-2-carboxamide] returned an IC50 of 2.2 nM. In addition, the pIC50 was over 7.00 at 11β-HSD1 [1]; 4.34 against CYP3A4; 8.24 on 11β-HSD1 [2]; 5.23 at CYP2C19; 4.75 at CYP2C9. Also, the inhibition at 0.1 µM on 11β-HSD1 [1] worked out at 94%. In addition, the Shift on 11β-HSD1 [2] is given as 2.5.
As to `C[C@@H](c1ccc(-c2ccc(C(=O)NC3CC3)nn2)cc1)N1CC[C@](CC(C)(C)O)(c2ccccc2)OC1=O` [EXAMPLE 10, N-cyclopropyl-6-(4-((S)-1-((S)-6-(2-hydroxy-2-methylpropyl)-2-oxo-6-phenyl-1,3-oxazinan-3-yl)ethyl)phenyl)pyridazine-3-carboxamide], the half-maximal inhibitory concentration (IC50) on 11β-HSD1 [1] was determined as 2.5 nM. The negative logarithm of the IC50 (pIC50) on 11β-HSD1 [1] was over 7.00; at CYP3A4 it was 4.46; at 11β-HSD1 [2] it was 8.12; against CYP2C19, 4.84; against CYP2C9, 4.67. Further, the inhibition at 0.1 µM at 11β-HSD1 [1] was determined as 93.6%.
`CCOc1ncc(-c2ccc([C@H](C)N3CC[C@](CC(C)(C)O)(c4ccccc4)OC3=O)cc2)cc1C` [EXAMPLE 160, (S)-3-((S)-1-(4-(6-ethoxy-5-methylpyridin-3-yl)phenyl)ethyl)-6-(2-hydroxy-2-methylpropyl)-6-phenyl-1,3-oxazinan-2-one]: the IC50 at 11β-HSD1 [1] turned out to be 1 nM. Moreover, the pIC50 against 11β-HSD1 [1] is over 7.00; against CYP3A4, 5.35; at 11β-HSD1 [2], 7.76; against CYP2C19, 5.77; against CYP2C9 it was 5.64. Moreover, at 11β-HSD1 [1], the inhibition at 0.1 µM turned out to be 95%. In addition, at 11β-HSD1 [2], the Shift came to 17.5.
On 11β-HSD1 [1], `C[C@@H](c1ccc(-c2cnc(C(=O)NC3CC3)nc2)cc1)N1CC[C@](CC(C)(C)C#N)(c2ccccc2)OC1=O` [EXAMPLE 16, 5-(4-((S)-1-((R)-6-(2-cyano-2-methylpropyl)-2-oxo-6-phenyl-1,3-oxazinan-3-yl)ethyl)phenyl)-N-cyclopropylpyrimidine-2-carboxamide] showed a 50% inhibitory concentration (IC50) of 0.8 nM. For the same compound, the pIC50 at 11β-HSD1 [1] was over 7.00; at CYP3A4 it was 4.60; at 11β-HSD1 [2], 8.26; at CYP2C19 it was 5.21; against CYP2C9, under 4.30. Further, on 11β-HSD1 [1], the inhibition at 0.1 µM turned out to be 97.9%. Also, the Shift on 11β-HSD1 [2] stood at 6.9.
Consider `C[C@@H](c1ccc(-c2ccc(C3CC3)nn2)cc1)N1CC[C@](CC(C)(C)O)(c2ccccc2)OC1=O` [EXAMPLE 4, (S)-3-((S)-1-(4-(6-cyclopropylpyridazin-3-yl)phenyl)ethyl)-6-(2-hydroxy-2-methylpropyl)-6-phenyl-1,3-oxazinan-2-one], for which, at 11β-HSD1 [1], 0.7 nM corresponded to half-maximal inhibition (IC50). Also, the pIC50 against 11β-HSD1 [1] is over 7.00; against CYP3A4 it was 4.71; on 11β-HSD1 [2], 8.40; at CYP2C19, 4.62; against CYP2C9 it was 4.70. On 11β-HSD1 [1], the inhibition at 0.1 µM amounted to 96.3%. In addition, the Shift at 11β-HSD1 [2] is 5.8.
Turning to `C[C@@H](c1ccc(-c2cnc(C(=O)NC3CC3)nc2)cc1)N1CC[C@](CC(C)(C)O)(c2ccccc2)OC1=O` [EXAMPLE 15, N-cyclopropyl-5-(4-((S)-1-((S)-6-(2-hydroxy-2-methylpropyl)-2-oxo-6-phenyl-1,3-oxazinan-3-yl)ethyl)phenyl)pyrimidine-2-carboxamide], it took 1.7 nM to reach half-maximal inhibition against 11β-HSD1 [1] (IC50). The pIC50 is over 7.00 against 11β-HSD1 [1]; under 4.30 on CYP3A4; 8.38 on 11β-HSD1 [2]; 4.90 against CYP2C19; under 4.30 against CYP2C9. Besides, the inhibition at 0.1 µM at 11β-HSD1 [1] stood at 94.1%. The Shift on 11β-HSD1 [2] was determined as 2.4.
In the case of `Cc1nnc(-c2ccc([C@H](C)N3CC[C@](CC(C)(C)O)(c4ccccc4)OC3=O)cc2)s1` [EXAMPLE 172, (S)-6-(2-Hydroxy-2-methyl-propyl)-3-{(S)-1-[4-(5-methyl-[1,3,4]thiadiazol-2-yl)-phenyl]-ethyl}-6-phenyl-[1,3]oxazinan-2-one], the IC50 against 11β-HSD1 [1] came to 3.3 nM. In addition, the pIC50 against 11β-HSD1 [1] was over 7.00; against CYP3A4 it was under 4.30; on 11β-HSD1 [2], 7.97; against CYP2C19, 4.35; at CYP2C9, 4.42. Also, the inhibition at 0.1 µM on 11β-HSD1 [1] worked out at 97.9%.
For `C[C@@H](c1ccc(-c2ncc(F)cn2)cc1)N1CC[C@](CC(C)(C)O)(c2ccccc2)OC1=O` [EXAMPLE 13, (S)-3-((S)-1-(4-(5-fluoropyrimidin-2-yl)phenyl)ethyl)-6-(2-hydroxy-2-methylpropyl)-6-phenyl-1,3-oxazinan-2-one], the 50% inhibitory concentration (IC50) on 11β-HSD1 [1] amounted to 1.8 nM. Further, the pIC50 is over 7.00 against 11β-HSD1 [1]; under 5.00 against CYP3A4; 7.98 at 11β-HSD1 [2]; under 5.00 on CYP2C19; under 5.00 at CYP2C9. For the same compound, the inhibition at 0.1 µM at 11β-HSD1 [1] came to 92.1%.
Consider `C[C@@H](c1ccc(-c2ncc(C(=O)N(C)C)s2)cc1)N1CC[C@](CC(C)(C)O)(c2ccccc2)OC1=O` [EXAMPLE 158, 2-(4-((S)-1-((S)-6-(2-hydroxy-2-methylpropyl)-2-oxo-6-phenyl-1,3-oxazinan-3-yl)ethyl)phenyl)-N,N-dimethylthiazole-5-carboxamide], for which, at 11β-HSD1 [1], half-maximal inhibition (IC50) required 2.1 nM. The pIC50 at 11β-HSD1 [1] is over 7.00; at CYP3A4, under 4.30; on 11β-HSD1 [2], 7.89; against CYP2C19, under 4.30; against CYP2C9, under 4.30. Besides, the inhibition at 0.1 µM on 11β-HSD1 [1] was 95.7%.
For the compound `C[C@@H](c1ccc(-c2ccc(C(=O)N(C)C)cn2)cc1)N1CC[C@](CC(C)(C)O)(c2ccccc2)OC1=O` [EXAMPLE 156, 6-(4-((S)-1-((S)-6-(2-hydroxy-2-methylpropyl)-2-oxo-6-phenyl-1,3-oxazinan-3-yl)ethyl)phenyl)-N,N-dimethylnicotinamide], at 11β-HSD1 [1], the half-maximal inhibitory concentration (IC50) was determined as 1.1 nM. Further, the negative-log IC50 (pIC50) was over 7.00 at 11β-HSD1 [1]; under 4.30 against CYP3A4; 8.00 at 11β-HSD1 [2]; 4.32 against CYP2C19; under 4.30 against CYP2C9. Besides, the inhibition at 0.1 µM at 11β-HSD1 [1] was found to be 96.4%.
Compound `Cc1ccc(-c2ccc([C@H](C)N3CC[C@](CC(C)(C)O)(c4ccc(F)cc4)OC3=O)cc2)nn1` [EXAMPLE 155, (S)-6-(4-fluorophenyl)-6-(2-hydroxy-2-methylpropyl)-3-((S)-1-(4-(6-methylpyridazin-3-yl)phenyl)ethyl)-1,3-oxazinan-2-one] gave an IC50 at 11β-HSD1 [1] of 2.1 nM. Further, the negative-log IC50 (pIC50) was over 7.00 at 11β-HSD1 [1]; under 4.30 at CYP3A4; 8.19 at 11β-HSD1 [2]; under 4.30 on CYP2C19; 4.41 against CYP2C9. Further, at 11β-HSD1 [1], the inhibition at 0.1 µM was determined as 94.7%. Moreover, the Shift at 11β-HSD1 [2] worked out at 3.0.
The compound `Cc1ccc(-c2ccc([C@H](C)N3CC[C@](CC(C)(C)C#N)(c4ccccc4)OC3=O)cc2)nn1` [EXAMPLE 166, 2,2-dimethyl-3-((R)-3-((S)-1-(4-(6-methylpyridazin-3-yl)phenyl)ethyl)-2-oxo-6-phenyl-1,3-oxazinan-6-yl)propanenitrile] yielded an IC50 on 11β-HSD1 [1] of 1 nM. For the same compound, the pIC50 was over 7.00 against 11β-HSD1 [1]; 4.68 against CYP3A4; 8.64 on 11β-HSD1 [2]; 4.40 at CYP2C19; 5.05 against CYP2C9. In addition, on 11β-HSD1 [1], the inhibition at 0.1 µM was 96.5%. In addition, the Shift on 11β-HSD1 [2] came out at 2.3.
`Cc1cc(-c2ccc([C@H](C)N3CC[C@](CC(C)(C)O)(c4ccc(F)cc4)OC3=O)cc2)cc(C)n1` [EXAMPLE 144, (S)-3-((S)-1-(4-(2,6-dimethylpyridin-4-yl)phenyl)ethyl)-6-(4-fluorophenyl)-6-(2-hydroxy-2-methylpropyl)-1,3-oxazinan-2-one] had a 50% inhibitory concentration (IC50) on 11β-HSD1 [1] of 1.2 nM. For the same compound, the negative-log IC50 (pIC50) at 11β-HSD1 [1] is over 7.00; against CYP3A4, 4.92; at 11β-HSD1 [2], 7.92; against CYP2C19 it was 5.02; against CYP2C9 it was 4.99. Moreover, on 11β-HSD1 [1], the inhibition at 0.1 µM came to 98.6%. Besides, the Shift at 11β-HSD1 [2] is 9.8.
